For one molecule, Kd results are on record in article PMC8179208, “Unravelling the mechanisms controlling heme supply and demand” (Proceedings of the National Academy of Sciences of the …, 2021).

The experiment has as its target T1, mAPXmEGFP (Glycine max, UniProt Q43758, K14D/E112K).
T1 construct: gene apx1; monomeric K14D/E112K APX fused to mEGFP reporter; N-terminal His tag, pLEICS-45; pea, Pisum sativum, possible
T1 sequence (Q43758 1-250 K14D/E112K): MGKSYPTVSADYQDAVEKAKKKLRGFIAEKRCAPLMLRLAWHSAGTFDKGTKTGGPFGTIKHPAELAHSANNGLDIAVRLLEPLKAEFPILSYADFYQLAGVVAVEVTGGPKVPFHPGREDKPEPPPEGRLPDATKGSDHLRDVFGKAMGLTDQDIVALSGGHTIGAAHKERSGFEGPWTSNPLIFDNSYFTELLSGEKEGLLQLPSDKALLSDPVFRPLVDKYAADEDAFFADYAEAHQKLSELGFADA
As to the kind of experiment: time-correlated single-photon counting fluorescence lifetime titration of apo protein, […] binding model. To be noted: 37 °C, 10 mM potassium phosphate pH 7, 1 uM protein.

As to `C=CC1=C(C)C2=Cc3c(C=C)c(C)c4[n]3[Fe]([Cl])[n]3c(c(C)c(CCC(=O)O)c3=CC3=NC(=C4)C(C)=C3CCC(=O)O)=CC1=N2` [heme], the Kd amounted to 22 nM.
